This note sets out measurements from article PMC12388980, “Development of AGT-7: An Innovative ^99mTc-Labeled Theranostic Platform for Glioblastoma Imaging and Therapy” (Pharmaceuticals, 2025).

By IC50 is commonly meant the concentration at which inhibition is half-maximal.

Each structure is given as a SMILES string.

Data set [1] deals with U87 cells. In words: Trypan blue exclusion cytotoxicity assay, U87 cells. Format: cell-based. Conditions: Homo sapiens, U-87 MG, U87 cell line, 72 h post-treatment. As to the method: (§1) To explore the effect of AGT-7 on the viability of GBM cell lines, T98 and U87 cells were cultured with escalating concentrations of the compounds for 72 h, and afterward, the trypan blue exclusion assay was carried out.
(§2) The sensitivity of T98 and U87 cells to the compound was assessed using the trypan blue exclusion test. A total of 20,000 cells were seeded onto 12-well plates and incubated in a humidified atmosphere. After 24 h, cells were treated with the compound at concentrations of 20–100 μM for 72 h followed by trypan blue exclusion analysis. The results were derived as the mean of three independent experiments.
(§3) Figure 3 Cytotoxic effect of AGT-7 on T98 (A) and U87 cell lines (B) 72 h after treatment. The results are the average of three independent experiments and are standardized to untreated cells. The IC50 values were calculated using the GraphPad Prism Version 6 non-linear regression analysis model.
(§4) Figure 4 Cytotoxic effect of AGT-7 and TMZ on T98 (A) and U87 cell lines (B) 72 h after treatment. The results are the average of three independent experiments and are standardized to untreated cells. The IC50 values were calculated using the GraphPad Prism Version 6 non-linear regression analysis model.

The test system of data set [2] is T98 cells. The data set can be described thus: Trypan blue exclusion cytotoxicity assay, T98 cells. Format: cell-based. The following applies: Homo sapiens, T98 cell line, 72 h post-treatment. Here is the method:
as §1, §2, §3, §4

Data set [3] deals with T98 cells. The data set can be described thus: Flow cytometric analysis of DNA cell cycle, T98 cells. The format is cell-based. Conditions: treated at IC50 for 72 h. Here is the method: (§5) Subsequently, cells were washed with phosphate-buffered saline (PBS) solution, harvested by incubation with trypsin, and held at 37 °C for 20 min with a PI working solution ([…], and 0.1% Triton X-100). PI fluorescence data were collected using a flow cytometer (Cytognos S.L., Polígono La Serna, Nave 9, 37900 Santa Marta de Tormes, Salamanca, Spain) and were analyzed using GraphPad Prism Version 6 software and MedCalc software (trial version).
(§6) Figure 5 Graphical representation of cell cycle distribution in T98 (A) and U87 (B) cell lines after treatment with AGT-7 in IC50 concentration. Experiment was carried out three times, and values are means of three repetitions.

Data set [4] relates to U87 cells. The data set can be described thus: Flow cytometric analysis of DNA cell cycle, U87 cells. The format is cell-based. The following applies: treated at IC50 for 72 h. Here is the method: as §5, §6
(In general: A flow cytometer gives signals particle by particle.)

Data set [5] concerns zebrafish (Danio rerio) embryos. The data set can be described thus: Acute toxicity test in zebrafish embryos (OECD 2010). Format: in vivo. Conditions: 96 hpf. As to the method: Prior to advancing the biological evaluation of AGT-7, it was essential to assess its in vivo acute toxicity. To this end, we employed a standard acute exposure assay using zebrafish (Danio rerio) embryos as a vertebrate model system. Drug exposure was for 96 h post-fertilization (hpf), following the guidelines established by the Organisation for Economic Co-operation and Development (OECD, 2010) for fish embryo toxicity testing. […] This alignment between therapeutically effective concentrations and sub-lethal doses in vivo underscores a favorable safety profile for AGT-7 and supports its further preclinical development.
Adult zebrafish specimens of the wild-type strain (AB) were maintained in a colony room, in a recirculated system, at 28 ± 1 °C, pH 6.5–7.5, and water conductivity of 500 ± 50 μS cm−1 with a 14 h light/10 h dark photoperiod (lights on at 8:00 a.m.). Feeding of the fish was performed twice a day with zebrafish feed (Zebrafeed, Sparos, […]) following common practices. Sexually mature zebrafish (at least three months old) were used for spawning.
The collection of zebrafish eggs was performed at the beginning of the 14 h light phase following the mating procedure that took place overnight. […] The dechorionation process of the eggs followed at 24 h post-fertilization (hpf).
The dechorionated embryos were placed in 24-well culture plates (2 embryos per well, 1.5 mL of solution per well), and each experiment was performed in triplicate. Preliminary tests were performed to evaluate the range of 0–100% mortality. DMSO (0.1%) was used as dissolver and as well as vehicle control (non-exposed). In the current study, seven different concentrations of AGT-7 were tested (0.0, 10.0, 20.0, 40.0, 60.0, 80.0, and 100.0 μΜ). In total, 881 embryos were studied, of which 96 belonged to the non-exposed group. […] Each experiment lasted 96 h post fertilization time (hpf) and began at 24 hpf, approximately at the 26-somite point, according to Kimmel et al..
It is essential to apply an acute test that uses short-term exposure (96hpf) to AGT-7 and then to determine the concentration that is lethal to 50% of zebrafish embryos. This is a valuable indicator of acute fish toxicity. According to OECD 2010, indications of death of an embryo include coagulation of the embryo, lack of somite formation, non-detachment of the tail, and/or lack of heartbeat.
Toxicity assays (LD50 values) and confidence limits (LD25 and LD75) were calculated based on cumulative mortality at the end of the experiment (96 hpf). The LD50 values were assessed using Regression Probit analysis (the chi-square test, Pearson goodness of fit test, and 95% confidence interval).

Data set [6] can be described thus: LC-MS-based plasma stability in human plasma. Conditions: 1 μM, 37 °C, 9-h incubation period, compared to TMZ. Format: in vitro ADME. Here is the method: Plasma samples were diluted 1:1 (v/v) with phosphate buffer (pH 7.4). […] The mixtures were vortexed vigorously and incubated at 37 °C on a thermoshaker (Kisker Biotech, Steinfurt, Germany) at 600 rpm. Reactions were terminated at 0, 1, 2, 3, 4, 6, 9, and 24 h by transferring 150 μL of the incubated plasma into 450 μL of ice-cold ACN. After vortexing, samples were stored at −20 °C for 30 min and centrifuged, and 200 μL of the supernatant was diluted with 600 μL of water. The resulting solution was filtered through a 0.22 μm nylon syringe filter (Target Analysis, Thessaloniki, Greece) into 2 mL glass vials before analysis.
The mobile phase consisted of (A) 0.1% formic acid in water and (B) 0.05% formic acid in ACN, delivered constantly at 0.2 mL/min. The gradient program was optimized as follows: 1% B (0.00–3.00 min), linear ramp to 100% B (3.00–10.00 min), hold at 100% B (10.00–12.00 min), return to initial conditions (12.00–12.01 min), and re-equilibration at 1% B (12.01–15.00 min). […]
Full-scan MS data were acquired in MS^E mode with two alternating collision energy functions: low energy (4 eV) for precursor ions and ramped high energy (25–45 eV) for fragment ions. […] System control and data acquisition were managed using MassLynx v4.2 (SCN 1029), while UNIFI v1.9.4.053 facilitated data processing, including adduct identification ([M+H]⁺, [M+Na]⁺, [M+H2]^2+) and relative quantitation. […]

In the data set with U87 cells [1], `Cn1nnc2c(C(=O)NCCCCN(Cc3ccccn3)Cc3ccccn3)ncn2c1=O` [AGT-7] displayed an IC50 of 30 µM. The same compound registered an IC50 in the data set with T98 cells [2] of 27 µM. Besides, the “effect on cell cycle progression” value in the data set with T98 cells [3] is “no significant effect on cell cycle progression”. Also, the “effect on cell cycle progression” value with U87 cells [4] is on record as “no significant effect on cell cycle progression”. Further, in data set [5], the LD25 is 35.54 µM, the LD75 was 61.64 µM and the “concentrations with no significant mortality” value is “up to 30 μM”. This compound also yielded an LD50 in data set [5] (cumulative mortality, probit analysis) of 46.81 µM. Further, the plasma stability profile entry in data set [6] was “very similar to that of the parent drug, TMZ”.

`Cn1nnc2c(C(N)=O)ncn2c1=O` [TMZ, temozolomide, reference compound]: the IC50 in the data set with U87 cells [1] is 50 µM; with T98 cells [2], 143 µM.
